Experimental data published in patent publication US6358885B1, “Substituted phenylheterocyclic herbicides” (Mississippi State University, priority 1992, dated 2002).

Key:
Test in all cases: Test G preemergence/postemergence greenhouse plant response rating 0 to 100
alfalfa = assay type: in vivo, Medicago ativa; details: 0 to 100 scale
From the text: (§1) Seeds, rhizomes, or plant parts of alfalfa (Medicago ativa), annual bluegrass (Poa annua), bermudagrass (Cynodon dactylon), broadleaf signalgrass (Brachiaria plantaginea), common purslane (Portulaca oleracea), common ragweed (Ambrosia elatior), […] (Paspalum dilatatum), goosegrass (Eleusine indica), guineagrass (Panicum maximum), […] exaltata), johnsongrass (Sorghum halepense), large crabgrass (Digitaria sanguinalis), peanut (Arachis hypoagaea), pitted morningglory (Ipomoea lacunosa), purple nutsedge (Cyperus rotundus), sandbur (Cenchrus echinatus), smooth crabgrass (Digitaria ischaemum) and yellow nutsedge (Cyperus esculentus) were planted into greenhouse pots containing greenhouse planting medium. Each pot contained only one plant species. The test compound was dissolved in a non-phytotoxic solvent and applied preemergence and/or postemergence to the plants. Preemergence applications were made within one day of planting the seeds or plant parts. Postemergence applications were applied when the plants were in the two to four leaf stage (three to twenty cm). Test chemicals were dissolved in a non-phytotoxic solvent and applied preemergence and postemergence to the plants. Untreated control plants and treated plants were placed in the greenhouse and visually evaluated for injury at 13 to 21 days after herbicide application. […] A dash (-) response indicates no test result.

annual bluegrass = assay type: in vivo, Poa annua; details: 0 to 100 scale
From the text: as §1

bermudagrass = assay type: in vivo, Cynodon dactylon; details: 0 to 100 scale
From the text: as §1

broadleaf signalgrass = assay type: in vivo, Brachiaria plantaginea; details: 0 to 100 scale
From the text: as §1

common purslane = assay type: in vivo, Portulaca oleracea; details: 0 to 100 scale
From the text: as §1

common ragweed = assay type: in vivo, Ambrosia elatior; details: 0 to 100 scale
From the text: as §1

dallisgrass = assay type: in vivo, Paspalum dilatatum; details: 0 to 100 scale
From the text: as §1

goosegrass = assay type: in vivo, Eleusine indica; details: 0 to 100 scale
From the text: as §1

guineagrass = assay type: in vivo, Panicum maximum; details: 0 to 100 scale
From the text: as §1

itchgrass = assay type: in vivo, Rottboellia exaltata; details: 0 to 100 scale
From the text: as §1

johnsongrass = assay type: in vivo, Sorghum halepense; details: 0 to 100 scale
From the text: as §1

large crabgrass = assay type: in vivo, Digitaria sanguinalis; details: 0 to 100 scale
From the text: as §1

peanut = assay type: in vivo, Arachis hypoagaea; details: 0 to 100 scale
From the text: as §1

pitted morningglory = assay type: in vivo, Ipomoea lacunosa; details: 0 to 100 scale
From the text: as §1

purple nutsedge = assay type: in vivo, Cyperus rotundus; details: Rate 125 g/ha, 0 to 100 scale
From the text: as §1

sandbur = assay type: in vivo, Cenchrus echinatus; details: 0 to 100 scale
From the text: as §1

yellow nutsedge = assay type: in vivo, Cyperus esculentus; details: Rate 125 g/ha, 0 to 100 scale
From the text: as §1

Fc1cc(Cl)c(OCc2ccccc2)cc1-c1nn2c(c1Cl)CCCC2 [Compound 22]
Plant response rating, Alfalfa Var. (alfalfa; POSTEMERGENCE, Rate 125 g/ha): 0 | Plant response rating, Alfalfa Var. (alfalfa; POSTEMERGENCE, Rate 250 g/ha): 0 | Plant response rating, Alfalfa Var. (alfalfa; PREEMERGENCE, Rate 125 g/ha): 0 | Plant response rating, Alfalfa Var. (alfalfa; PREEMERGENCE, Rate 250 g/ha): 0 | Plant response rating, Ann Bluegrass (annual bluegrass; POSTEMERGENCE, Rate 125 g/ha): 0 | Plant response rating, Ann Bluegrass (annual bluegrass; POSTEMERGENCE, Rate 250 g/ha): 0 | Plant response rating, Ann Bluegrass (annual bluegrass; PREEMERGENCE, Rate 125 g/ha): 0 | Plant response rating, Ann Bluegrass (annual bluegrass; PREEMERGENCE, Rate 250 g/ha): 0 | Plant response rating, Bermudagrass (bermudagrass; POSTEMERGENCE, Rate 125 g/ha): 20 | Plant response rating, Bermudagrass (bermudagrass; POSTEMERGENCE, Rate 250 g/ha): 0 | Plant response rating, Bermudagrass (bermudagrass; PREEMERGENCE, Rate 125 g/ha): 0 | Plant response rating, Bermudagrass (bermudagrass; PREEMERGENCE, Rate 250 g/ha): 0 | Plant response rating, Brdlf Sgnlgrass (broadleaf signalgrass; POSTEMERGENCE, Rate 125 g/ha): 0 | Plant response rating, Brdlf Sgnlgrass (broadleaf signalgrass; POSTEMERGENCE, Rate 250 g/ha): 0 | Plant response rating, Brdlf Sgnlgrass (broadleaf signalgrass; PREEMERGENCE, Rate 125 g/ha): 0 | Plant response rating, Brdlf Sgnlgrass (broadleaf signalgrass; PREEMERGENCE, Rate 250 g/ha): 0 | Plant response rating, Cmn Purslane (common purslane; POSTEMERGENCE, Rate 125 g/ha): 80 | Plant response rating, Cmn Purslane (common purslane; POSTEMERGENCE, Rate 250 g/ha): 70 | Plant response rating, Cmn Purslane (common purslane; PREEMERGENCE, Rate 125 g/ha): 0 | Plant response rating, Cmn Purslane (common purslane; PREEMERGENCE, Rate 250 g/ha): 0 | Plant response rating, Cmn Ragweed (common ragweed; POSTEMERGENCE, Rate 125 g/ha): 70 | Plant response rating, Cmn Ragweed (common ragweed; POSTEMERGENCE, Rate 250 g/ha): 20 | Plant response rating, Cmn Ragweed (common ragweed; PREEMERGENCE, Rate 125 g/ha): 0 | Plant response rating, Cmn Ragweed (common ragweed; PREEMERGENCE, Rate 250 g/ha): 0 | Plant response rating, Dallisgrass (dallisgrass; POSTEMERGENCE, Rate 125 g/ha): 0 | Plant response rating, Dallisgrass (dallisgrass; POSTEMERGENCE, Rate 250 g/ha): 0 | Plant response rating, Dallisgrass (dallisgrass; PREEMERGENCE, Rate 125 g/ha): 0 | Plant response rating, Dallisgrass (dallisgrass; PREEMERGENCE, Rate 250 g/ha): 0 | Plant response rating, Goosegrass (goosegrass; POSTEMERGENCE, Rate 125 g/ha): 0 | Plant response rating, Goosegrass (goosegrass; POSTEMERGENCE, Rate 250 g/ha): 0 | Plant response rating, Goosegrass (goosegrass; PREEMERGENCE, Rate 125 g/ha): 0 | Plant response rating, Goosegrass (goosegrass; PREEMERGENCE, Rate 250 g/ha): 0 | Plant response rating, Guineagrass (guineagrass; POSTEMERGENCE, Rate 125 g/ha): 0 | Plant response rating, Guineagrass (guineagrass; POSTEMERGENCE, Rate 250 g/ha): 0 | Plant response rating, Guineagrass (guineagrass; PREEMERGENCE, Rate 125 g/ha): 0 | Plant response rating, Guineagrass (guineagrass; PREEMERGENCE, Rate 250 g/ha): 0 | Plant response rating, Itchgrass (itchgrass; POSTEMERGENCE, Rate 125 g/ha): 0 | Plant response rating, Itchgrass (itchgrass; POSTEMERGENCE, Rate 250 g/ha): 0 | Plant response rating, Itchgrass (itchgrass; PREEMERGENCE, Rate 125 g/ha): 0 | Plant response rating, Itchgrass (itchgrass; PREEMERGENCE, Rate 250 g/ha): 0 | Plant response rating, Johnsongrass (johnsongrass; POSTEMERGENCE, Rate 125 g/ha): 0 | Plant response rating, Johnsongrass (johnsongrass; POSTEMERGENCE, Rate 250 g/ha): 0 | Plant response rating, Johnsongrass (johnsongrass; PREEMERGENCE, Rate 125 g/ha): 0 | Plant response rating, Johnsongrass (johnsongrass; PREEMERGENCE, Rate 250 g/ha): 0 | Plant response rating, Large Crabgrass (large crabgrass; POSTEMERGENCE, Rate 125 g/ha): 0 | Plant response rating, Large Crabgrass (large crabgrass; POSTEMERGENCE, Rate 250 g/ha): 0 | Plant response rating, Large Crabgrass (large crabgrass; PREEMERGENCE, Rate 125 g/ha): 0 | Plant response rating, Large Crabgrass (large crabgrass; PREEMERGENCE, Rate 250 g/ha): 0 | Plant response rating, Peanuts (peanut; POSTEMERGENCE, Rate 125 g/ha): 0 | Plant response rating, Peanuts (peanut; POSTEMERGENCE, Rate 250 g/ha): 0 | Plant response rating, Peanuts (peanut; PREEMERGENCE, Rate 125 g/ha): 0 | Plant response rating, Peanuts (peanut; PREEMERGENCE, Rate 250 g/ha): 0 | Plant response rating, Pit Morninglory (pitted morningglory; POSTEMERGENCE, Rate 125 g/ha): 20 | Plant response rating, Pit Morninglory (pitted morningglory; POSTEMERGENCE, Rate 250 g/ha): 0 | Plant response rating, Pit Morninglory (pitted morningglory; PREEMERGENCE, Rate 125 g/ha): 0 | Plant response rating, Pit Morninglory (pitted morningglory; PREEMERGENCE, Rate 250 g/ha): 0 | Plant response rating, Purple Nutsedge (purple nutsedge; POSTEMERGENCE): 0 | Plant response rating, Purple Nutsedge (purple nutsedge; PREEMERGENCE): 0 | Plant response rating, S. Sandbur (sandbur; POSTEMERGENCE, Rate 125 g/ha): 0 | Plant response rating, S. Sandbur (sandbur; POSTEMERGENCE, Rate 250 g/ha): 0 | Plant response rating, S. Sandbur (sandbur; PREEMERGENCE, Rate 125 g/ha): 0 | Plant response rating, S. Sandbur (sandbur; PREEMERGENCE, Rate 250 g/ha): 0 | Plant response rating, Yellow Nutsedge (yellow nutsedge; POSTEMERGENCE): 0 | Plant response rating, Yellow Nutsedge (yellow nutsedge; PREEMERGENCE): 0
